In the NIST ThermoML archive (doi:10.1016/j.fluid.2008.03.004):
Numbers after ± are expanded uncertainties.

Experiments:
[1] = 101 kPa, Liquid; for speed of sound: Sing-around technique in a fixed-path interferometer
[2] = xn = mol fraction of the nth substance listed; conditions: 101 kPa, Liquid, x2 = 0; for speed of sound: Sing-around technique in a fixed-path interferometer

Cc1ccccc1C [1,2-dimethylbenzene]
[1]
Conditions	mass density [kg/m3]	speed of sound [m/s]
288.15 K	883.36 ± 0.35	1381.3 ± 2.2
290.65 K	881.265 ± 0.35	1371.8 ± 2.2
293.15 K	879.168 ± 0.35	1362.2 ± 2.2
295.65 K	877.069 ± 0.36	1351.8 ± 2.2
298.15 K	874.968 ± 0.36	1341.5 ± 2.2
300.65 K	872.865 ± 0.36	1331.2 ± 2.2
303.15 K	870.759 ± 0.36	1321 ± 2.2
305.65 K	868.65 ± 0.37	1310.8 ± 2.2
308.15 K	866.538 ± 0.37	1300.7 ± 2.2
310.65 K	864.422 ± 0.38	1290.6 ± 2.2
313.15 K	862.302 ± 0.38	1280.6 ± 2.2
315.65 K	860.179 ± 0.38	1270.5 ± 2.2
318.15 K	858.054 ± 0.38	1260.6 ± 2.2
320.65 K	855.927 ± 0.39	1250.7 ± 2.2
323.15 K	853.803 ± 0.39	1240.9 ± 2.2

Cc1ccccc1C [1,2-dimethylbenzene] + CCOC(C)(C)C
[2]
Conditions	mass density [kg/m3]	speed of sound [m/s]
288.15 K	883.36 ± 0.35	1381.3 ± 2.2
290.65 K	881.265 ± 0.35	1371.8 ± 2.2
293.15 K	879.168 ± 0.35	1362.2 ± 2.2
295.65 K	877.069 ± 0.36	1351.8 ± 2.2
298.15 K	874.968 ± 0.36	1341.5 ± 2.2
300.65 K	872.865 ± 0.36	1331.2 ± 2.2
303.15 K	870.759 ± 0.36	1321 ± 2.2
305.65 K	868.65 ± 0.37	1310.8 ± 2.2
308.15 K	866.538 ± 0.37	1300.7 ± 2.2
310.65 K	864.422 ± 0.38	1290.6 ± 2.2
313.15 K	862.302 ± 0.38	1280.6 ± 2.2
315.65 K	860.179 ± 0.38	1270.5 ± 2.2
318.15 K	858.054 ± 0.38	1260.6 ± 2.2
320.65 K	855.927 ± 0.39	1250.7 ± 2.2
323.15 K	853.803 ± 0.39	1240.9 ± 2.2

Cc1cccc(C)c1 [1,3-dimethylbenzene]
[1]
Conditions	mass density [kg/m3]	speed of sound [m/s]
288.15 K	868.459 ± 0.37	1362.7 ± 2.2
290.65 K	866.318 ± 0.37	1352.1 ± 2.2
293.15 K	864.177 ± 0.38	1341.7 ± 2.2
295.65 K	862.035 ± 0.38	1331.3 ± 2.2
298.15 K	859.89 ± 0.38	1320.9 ± 2.2
300.65 K	857.742 ± 0.38	1310.6 ± 2.2
303.15 K	855.593 ± 0.39	1300.3 ± 2.2
305.65 K	853.441 ± 0.39	1290 ± 2.2
308.15 K	851.282 ± 0.39	1279.8 ± 2.2
310.65 K	849.122 ± 0.4	1269.6 ± 2.2
313.15 K	846.958 ± 0.4	1259.5 ± 2.2
315.65 K	844.792 ± 0.4	1249.3 ± 2.2
318.15 K	842.622 ± 0.41	1239.3 ± 2.2
320.65 K	840.452 ± 0.41	1229.3 ± 2.2
323.15 K	838.289 ± 0.41	1219.5 ± 2.2

Cc1cccc(C)c1 [1,3-dimethylbenzene] + CCOC(C)(C)C
[2]
Conditions	mass density [kg/m3]	speed of sound [m/s]
288.15 K	868.459 ± 0.37	1362.7 ± 2.2
290.65 K	866.318 ± 0.37	1352.1 ± 2.2
293.15 K	864.177 ± 0.38	1341.7 ± 2.2
295.65 K	862.035 ± 0.38	1331.3 ± 2.2
298.15 K	859.89 ± 0.38	1320.9 ± 2.2
300.65 K	857.742 ± 0.38	1310.6 ± 2.2
303.15 K	855.593 ± 0.39	1300.3 ± 2.2
305.65 K	853.441 ± 0.39	1290 ± 2.2
308.15 K	851.282 ± 0.39	1279.8 ± 2.2
310.65 K	849.122 ± 0.4	1269.6 ± 2.2
313.15 K	846.958 ± 0.4	1259.5 ± 2.2
315.65 K	844.792 ± 0.4	1249.3 ± 2.2
318.15 K	842.622 ± 0.41	1239.3 ± 2.2
320.65 K	840.452 ± 0.41	1229.3 ± 2.2
323.15 K	838.289 ± 0.41	1219.5 ± 2.2

Cc1ccc(C)cc1 [1,4-dimethylbenzene]
[1]
Conditions	mass density [kg/m3]	speed of sound [m/s]
288.15 K	865.354 ± 0.37	1347.9 ± 2.2
290.65 K	863.184 ± 0.38	1336.9 ± 2.2
293.15 K	861.015 ± 0.38	1326.1 ± 2.2
295.65 K	858.846 ± 0.38	1315.6 ± 2.2
298.15 K	856.675 ± 0.39	1305.4 ± 2.2
300.65 K	854.501 ± 0.39	1295.3 ± 2.2
303.15 K	852.326 ± 0.39	1285.4 ± 2.2
305.65 K	850.148 ± 0.4	1275.6 ± 2.2
308.15 K	847.969 ± 0.4	1266.1 ± 2.2
310.65 K	845.784 ± 0.4	1256.4 ± 2.2
313.15 K	843.599 ± 0.41	1246.8 ± 2.2
315.65 K	841.41 ± 0.41	1237.6 ± 2.2
318.15 K	839.22 ± 0.41	1228.1 ± 2.2
320.65 K	837.031 ± 0.41	1220.5 ± 2.2
323.15 K	834.849 ± 0.42	1211 ± 2.2
